What all share (test): growth of human tumour cells (NCI), 48 h
Assay [1] relates to HS 578T breast.
For assay [2], the system named is MALME-3M melanoma.
The test system of assay [3] is NCI-H226 lung.
The subject of assay [4] is NCI-H23 lung.
Assay [5] deals with NCI-H460 lung.
Assay [6] deals with OVCAR-3 ovarian.
Assay [7] has as its system OVCAR-5 ovarian.
Assay [8] concerns SF-539 CNS.
Assay [9] relates to SK-MEL-5 melanoma.
For assay [10], the system named is SW-620 colon.

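Protocol summary: plate cells (96-well), add compound at 5 concentrations, incubate 48 h, interpolate endpoints linearly. The concentration for 50% growth inhibition is given as GI50. TGI: concentration producing complete growth inhibition.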

This is an account of results in PubChem BioAssay (NCI).

In the case of `C=CC1=C[C@@H]2[C@@H]3O[C@]4(CC[C@H](O4)[C@@H](C)C[C@@H](O)C3=O)C[C@H](O)C3=NCC[C@@]32CC1`, the GI50 in assay [1], in assay [2], in assay [3], in assay [4], in [5] and in assay [6] was less than 0.00333 µM each time. In addition, the GI50 in assay [7], in assay [8], in assay [9] and in [10] was less than 0.00333 µM in each case. Besides, the TGI in [1], in assay [2], in assay [3], in assay [4], in [5] and in [6] was less than 0.00333 µM each time. Further, the TGI in [7] was 0.00513 µM; in [8] it was less than 0.00333 µM; in assay [9], less than 0.00333 µM; in assay [10], 0.00523 µM.

`C/C(=C\c1ccn(-c2ccc(N)c(F)c2)n1)[C@@H]1C[C@@H]2O[C@]2(C)CCC[C@H](C)[C@H](O)[C@@H](C)C(=O)C(C)(C)[C@@H](O)CC(=O)O1`: the GI50 was 0.0108 µM in assay [1]; 0.0217 µM in assay [2]; 7.99 µM in [3]; 0.0138 µM in assay [4]; 0.00938 µM in assay [5]; 0.00815 µM in assay [6]. The GI50 in [7] was 0.0472 µM; in [8], 0.012 µM; in assay [9], 0.00882 µM; in assay [10], 0.0103 µM. Also, the TGI in assay [2] is greater than 50 µM; in [3], greater than 50 µM; in assay [4], greater than 50 µM; in [5], greater than 50 µM; in assay [6], 0.0747 µM; in assay [7] it was greater than 50 µM. In addition, the values for the TGI in assay [8], in assay [9] and in assay [10] were 0.11 µM, 6.54 µM and greater than 50 µM, respectively.

As to `COc1ccc2c(c1)c(-c1nc(-c3c[nH]c4ncccc34)cs1)cn2CCCCN1CCOCC1`, the GI50 in [1] was 2.05 µM; in assay [2], 1.55 µM; in assay [3] it was 2.46 µM; in assay [4], 2.14 µM; in assay [5] it was 1.99 µM; in [6], 1.87 µM. In addition, the GI50 in assay [7] is 1.99 µM; in [8], 1.67 µM; in [9], 1.75 µM; in assay [10] it was 1.99 µM. Also, the TGI turned out to be 5.82 µM in [1]; 3.34 µM in assay [2]; 9.91 µM in assay [3]; 5.08 µM in [4]; 3.9 µM in assay [5]; 3.74 µM in assay [6]. The TGI in [7] came to 4.02 µM; in assay [8], 3.11 µM; in assay [9], 3.16 µM; in assay [10] it was 3.92 µM.

Consider `NC(=O)c1oc([N+](=O)[O-])c(-c2ccccc2)c1-c1ccccc1`, for which the TGI in [1] is 28.2 µM; in assay [2], 16 µM; in assay [3], 28.1 µM; in [4] it was 35 µM; in assay [5], greater than 100 µM; in [6], 22.7 µM. For the same compound, the TGI was 63.2 µM in assay [7], 38.1 µM in assay [8], 14.2 µM in [9] and greater than 100 µM in assay [10].

Consider `COc1cc(C(O)c2nc3ccccc3s2)cc(OC)c1OC` (centres undefined), for which the GI50 in [1] was 40.5 µM; in [2], 21.4 µM; in assay [3] it was 47.1 µM; in assay [4] it was 7.32 µM; in assay [5], 30.9 µM; in [6], 88.9 µM. Moreover, the GI50 was greater than 100 µM in [7], greater than 100 µM in assay [8], 7.35 µM in [9] and greater than 100 µM in assay [10]. For the same compound, the TGI in assay [1], in assay [2], in [3], in assay [4], in assay [5] and in assay [6] was greater than 100 µM each time. The TGI in [7] is greater than 100 µM; in assay [8], greater than 100 µM; in [9], 79.5 µM; in assay [10] it was greater than 100 µM.

For the compound `O=C1c2ccc3c4c5ccc(c24)C(=O)N1CCCOCCCCOCCCNCc1ccc(cc1)CNCCCOCCCCOCCCN(C3=O)C5=O`, the GI50 was 1.4 µM in assay [1]; 0.628 µM in [2]; 1.77 µM in [3]; 0.93 µM in assay [4]; 0.972 µM in [5]; 0.766 µM in [6]. Moreover, the GI50 in [7] was 0.944 µM; in assay [8], 0.871 µM; in assay [9], 0.855 µM; in [10], 0.964 µM. The TGI is 5.32 µM in [1]; 1.3 µM in assay [2]; 6.58 µM in assay [3]; 1.81 µM in assay [4]; 2 µM in assay [5]; 1.79 µM in [6]. The TGI in assay [7] was 1.81 µM; in [8], 1.64 µM; in [9], 1.55 µM; in [10], 2.06 µM.

Consider `COc1ccc(C(=O)COc2cccc(/C=C3\CSc4ccccc4C3=O)c2)cc1`, for which the GI50 in assay [1] was 0.424 µM; in [2] it was 2.2 µM; in assay [3], 4.63 µM; in assay [4], 2.14 µM; in assay [5], 3.56 µM; in [6], 1.88 µM. In addition, the GI50 in assay [7] was 2.18 µM; in assay [8], 2.95 µM; in assay [9], 1.78 µM; in [10], 0.262 µM. Further, the TGI in assay [1] turned out to be 4.91 µM; in [2], 5.58 µM; in assay [3], 14.9 µM; in [4], 4.78 µM; in [5] it was 12 µM; in assay [6] it was 3.65 µM. The TGI in assay [7] amounted to 4.77 µM; in assay [8], 8.51 µM; in assay [9], 3.27 µM; in assay [10], 0.707 µM.

Regarding `Cc1ccc2c(c1C)-c1c(ccc(C)c1C)C(=O)C2=O`, the TGI in assay [1] is 5.76 µM; in assay [2], 1.83 µM; in [3], 5.91 µM; in assay [4] it was 2.81 µM; in assay [5], 3.4 µM; in assay [6] it was 1.1 µM. Besides, the TGI in assay [7] came to 3.42 µM; in [8] it was 0.42 µM; in [9], 1.29 µM; in [10] it was 3.23 µM.
